# Test results reported in patent US20220354754A1, “FOAM COMPOSITIONS” (The Procter & Gamble Company, priority 2021, published 2022).
# Assay: Water solubility of blowing agents at 20° C.
# Conditions: in water
row,Water solubility at 20° C. (weight percent),Compound
1,<0.01% weight percent,CC(C)C [Isobutane]
2,0.12 weight percent,[N-]=[N+]=O [Nitrous oxide]

# Further lines, the compound ahead of its results:
row,Compound,Water solubility at 20° C. (weight percent)
1,CCCC [Butane],<0.01% weight percent
2,O=C=O [Carbon dioxide],0.8% weight percent
3,COC [Dimethyl ether],7% weight percent
4,[He] [Helium],<0.01 weight percent
